# From US8883789B2, “Piperazine derivatives and their use as positive allosteric modulators of mGluR5 receptors” (Boehringer Ingelheim International GmbH, priority 2011, dated 2014)
# Target: T1, human recombinant mGluR5 (Homo sapiens, UniProt P41594)
# T1 construct: expressed in transfected cells; hygromycin and geneticin selection
# Experiment: positive modulation of mGluR5, calcium based FLIPR assay
# Details: HEK 293 cell line expressing human recombinant mGluR5; Ca2+ peak height after glutamate at approximately 5% basal stimulation; nonlinear regression
# Procedure, shortened: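 HEK293 cells with tetracycline-free induction, Calcium-4 dye-loaded in Ringer pH 7.4. Compound added 5 min before glutamate at ~5% of maximal effect, 1% DMSO. EC50 from peak Ca2+ fluorescence, normalized to basal glutamate (100%) and 10 μM CDPPB (200%), via nonlinear regression.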
# T1 sequence (P41594 21-1212): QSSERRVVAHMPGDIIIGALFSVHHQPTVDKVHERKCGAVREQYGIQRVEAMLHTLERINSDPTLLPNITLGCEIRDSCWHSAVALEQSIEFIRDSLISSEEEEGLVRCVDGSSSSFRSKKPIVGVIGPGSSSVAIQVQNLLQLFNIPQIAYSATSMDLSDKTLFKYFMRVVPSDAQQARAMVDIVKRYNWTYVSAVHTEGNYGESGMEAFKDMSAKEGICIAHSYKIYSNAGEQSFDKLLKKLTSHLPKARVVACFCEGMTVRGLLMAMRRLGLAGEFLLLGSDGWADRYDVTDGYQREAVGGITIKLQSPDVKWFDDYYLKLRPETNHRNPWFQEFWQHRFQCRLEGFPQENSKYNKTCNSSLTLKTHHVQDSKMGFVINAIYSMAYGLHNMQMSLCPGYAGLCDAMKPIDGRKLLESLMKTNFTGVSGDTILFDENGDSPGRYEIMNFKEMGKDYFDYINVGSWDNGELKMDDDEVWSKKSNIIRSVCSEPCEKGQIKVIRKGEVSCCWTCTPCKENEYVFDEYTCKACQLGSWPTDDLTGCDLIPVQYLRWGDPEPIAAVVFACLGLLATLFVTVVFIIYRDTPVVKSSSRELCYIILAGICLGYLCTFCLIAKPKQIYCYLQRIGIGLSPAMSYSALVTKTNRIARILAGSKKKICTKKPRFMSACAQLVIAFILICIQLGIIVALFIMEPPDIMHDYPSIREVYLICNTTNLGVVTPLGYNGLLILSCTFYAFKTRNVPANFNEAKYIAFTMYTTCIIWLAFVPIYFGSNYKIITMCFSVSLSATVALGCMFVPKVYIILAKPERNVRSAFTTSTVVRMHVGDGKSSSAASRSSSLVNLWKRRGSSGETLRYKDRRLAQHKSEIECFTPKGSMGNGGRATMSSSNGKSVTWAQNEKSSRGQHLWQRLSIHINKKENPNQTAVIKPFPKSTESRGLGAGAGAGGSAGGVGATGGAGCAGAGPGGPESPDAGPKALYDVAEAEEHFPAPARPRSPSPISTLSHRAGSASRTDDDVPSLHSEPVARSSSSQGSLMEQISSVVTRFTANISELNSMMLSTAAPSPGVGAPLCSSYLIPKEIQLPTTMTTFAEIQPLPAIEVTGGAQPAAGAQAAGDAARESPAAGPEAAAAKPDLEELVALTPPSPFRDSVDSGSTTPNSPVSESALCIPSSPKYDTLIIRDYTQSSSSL
row,Structure (SMILES),EC50 [µM]
1,CC1(C)CN(C(=O)c2cccc(Cl)c2)CCN1C(=O)c1ncn(-c2ccccc2F)n1 [Example 194],0.491
2,CC1(C)CN(C(=O)c2cccc(Cl)c2)CCN1C(=O)c1ncn(-c2cc(F)ccc2F)n1 [Example 195],1
3,Cc1c(C(=O)N2CCN(C(=O)c3ncn(-c4cccc(Cl)c4)n3)CC2C)oc2ccc(F)cc12 (stereo not shown) [Example 212],0.568
4,COc1ccc2c(C)c(C(=O)N3CCN(C(=O)c4ncn(-c5cccc(Cl)c5)n4)CC3C)oc2c1 (stereo not shown) [Example 213],0.817
5,CC1CN(C(=O)c2ncn(-c3cccc(Cl)c3)n2)CCN1C(=O)c1cc2ccccc2o1 (stereo not shown) [Example 214],0.428
6,CC(C)COc1cccc(C(=O)N2CCN(C(=O)c3ncn(-c4cccc(Cl)c4)n3)CC2C)c1 (stereo not shown) [Example 216],0.612
7,COCc1c(C(=O)N2CCN(C(=O)c3ncn(-c4cccc(Cl)c4)n3)CC2C)oc2ccccc12 (stereo not shown) [Example 217],1.54
8,CC1CN(C(=O)c2ncn(-c3cccc(Cl)c3)n2)CCN1C(=O)c1cccc(-c2nccs2)c1 (stereo not shown) [Example 218],0.422
9,CCCOc1cccc(C(=O)N2CCN(C(=O)c3ncn(-c4cccc(Cl)c4)n3)CC2C)c1 (stereo not shown) [Example 219],0.356
10,CC1CN(C(=O)c2ncn(-c3cccc(Cl)c3)n2)CCN1C(=O)c1cccc2c1OCO2 (stereo not shown) [Example 220],0.799
11,CC1CN(C(=O)c2ncn(-c3cccc(Cl)c3)n2)CCN1C(=O)c1cc2c(Cl)cccc2s1 (stereo not shown) [Example 223],0.33
12,COc1cc(OC)cc(C(=O)N2CCN(C(=O)c3ncn(-c4cccc(Cl)c4)n3)CC2C)c1 (stereo not shown) [Example 224],0.369
13,CC1CN(C(=O)c2ncn(-c3cccc(Cl)c3)n2)CCN1C(=O)c1cccc(-c2ccn(C)n2)c1 (stereo not shown) [Example 225],0.498
14,CC1CN(C(=O)c2ncn(-c3cccc(Cl)c3)n2)CCN1C(=O)c1sc2ccccc2c1Cl (stereo not shown) [Example 226],0.6
15,Cc1ccc2oc(C(=O)N3CCN(C(=O)c4ncn(-c5cccc(Cl)c5)n4)CC3C)c(C)c2c1 (stereo not shown) [Example 227],0.954
16,Cc1c(C(=O)N2CCN(C(=O)c3ncn(-c4cccc(Cl)c4)n3)CC2C)oc2ccccc12 (stereo not shown) [Example 228],0.404
17,CC1CN(C(=O)c2ncn(-c3cccc(Cl)c3)n2)CCN1C(=O)c1ccc2c(c1)nc(CC1CCCC1)n2C (stereo not shown) [Example 229],0.512
18,CC1CN(C(=O)c2ncn(-c3cccc(Cl)c3)n2)CCN1C(=O)c1cn(C)c2ccccc12 (stereo not shown) [Example 230],0.57
19,CC1CN(C(=O)c2ncn(-c3cccc(Cl)c3)n2)CCN1C(=O)c1ccc(Cl)s1 (stereo not shown) [Example 231],1.78
20,Cc1c(C(=O)N2CCN(C(=O)c3ncn(-c4cccc(Cl)c4)n3)CC2C)oc2c(F)cccc12 (stereo not shown) [Example 232],1.16
21,COc1cc(C(=O)N2CCN(C(=O)c3ncn(-c4cccc(F)c4)n3)CC2C)ccc1C (stereo not shown) [Example 233],0.476
22,Cc1cccc(-n2cnc(C(=O)N3CCN(C(=O)c4oc5ccc(F)cc5c4C)C(C)C3)n2)c1 (stereo not shown) [Example 236],1.62
23,Cc1cccc(-n2cnc(C(=O)N3CCN(C(=O)c4cc(Cl)c5c(c4)OCCO5)C(C)C3)n2)c1 (stereo not shown) [Example 239],0.326
24,Cc1oc2ccccc2c1C(=O)N1CCN(C(=O)c2ncn(-c3ccccc3)n2)CC1C (stereo not shown) [Example 240],0.35
25,Cc1c(C(=O)N2CCN(C(=O)c3ncn(-c4ccccc4)n3)CC2C)oc2ccc(F)cc12 (stereo not shown) [Example 241],0.987
26,"COc1cccc(C(=O)N2CCN(C(=O)c3nnn(-c4cccc(C)c4)n3)CC2C)n1 (stereo not shown) [Example 243, (6-Methoxy-pyridin-2-yl)-[2-methyl-4-(2-m-tolyl-2H-tetrazole-5-carbonyl)-piperazin-1-yl]-methanone]",0.365
27,COc1cccc(C(=O)N2CCN(C(=O)c3ncn(-c4cccc(Br)c4)n3)CC2C)n1 (stereo not shown) [Example 245],0.357
28,COc1cccc(C(=O)N2CCN(C(=O)c3ncn(-c4ccccc4)n3)CC2C)n1 (stereo not shown) [Example 247],0.373
29,Cc1c(C(=O)N2CCN(C(=O)c3ncn(-c4cccc(Cl)c4)n3)C[C@H]2C)oc2ccc(F)cc12 [Example 250],0.371

# The remaining lines, values ahead:
row,EC50 [µM],Structure (SMILES)
1,0.036,CC1(C)CN(C(=O)c2cccc(C3CC3)n2)CCN1C(=O)c1nnn(-c2cccc(F)c2)n1 [Example 185]
2,0.039,"CC1(C)CN(C(=O)c2cccc(Cl)c2)CCN1C(=O)c1ncn(-c2ccccc2)n1 [Example 186, [4-(3-Chloro-benzoyl)-2,2-dimethyl-piperazin-1-yl]-(1-phenyl-1H-[1,2,4]-triazol-3-yl)-methanone]"
3,0.024,CC1(C)CN(C(=O)c2cccc(Cl)c2)CCN1C(=O)c1nnn(-c2ccccc2)n1 [Example 187]
4,0.033,Cc1cccc(-n2cnc(C(=O)N3CCN(C(=O)c4cccc(Cl)c4)CC3(C)C)n2)c1 [Example 188]
5,0.036,Cc1cccc(-n2nnc(C(=O)N3CCN(C(=O)c4cccc(Cl)c4)CC3(C)C)n2)c1 [Example 189]
6,0.057,CC1(C)CN(C(=O)c2cccc(Cl)c2)CCN1C(=O)c1ncn(-c2cccc(F)c2)n1 [Example 190]
7,0.064,CC1(C)CN(C(=O)c2cccc(Cl)c2)CCN1C(=O)c1nnn(-c2cccc(Cl)c2)n1 [Example 191]
8,0.159,CC1(C)CN(C(=O)c2cccc(Cl)c2)CCN1C(=O)c1nnn(-c2cccc(F)c2)n1 [Example 192]
9,0.173,CC1(C)CN(C(=O)c2cccc(Cl)c2)CCN1C(=O)c1nnn(-c2ccc(F)cc2)n1 [Example 193]
10,0.156,CC1(C)CN(C(=O)c2cccc(Cl)c2)CCN1C(=O)c1nnn(-c2ccccc2F)n1 [Example 196]
11,0.149,"COc1cccc(C(=O)N2CCN(C(=O)c3ncn(-c4cc(F)ccc4F)n3)C(C)(C)C2)n1 [Example 197, [1-(2,5-Difluoro-phenyl)-1H-[1,2,4]triazol-3-yl]-[4-(6-methoxy-pyridine-2-carbonyl)-2,2-dimethyl-piperazin-1-yl]-methanone]"
12,0.123,COc1cccc(C(=O)N2CCN(C(=O)c3nnn(-c4cccc(C)c4)n3)C(C)(C)C2)n1 [Example 198]
13,0.069,COc1cccc(C(=O)N2CCN(C(=O)c3nnn(-c4cccc(Cl)c4)n3)C(C)(C)C2)n1 [Example 199]
14,0.132,COc1cccc(C(=O)N2CCN(C(=O)c3nnn(-c4ccc(F)cc4)n3)C(C)(C)C2)n1 [Example 200]
15,0.102,COc1cccc(C(=O)N2CCN(C(=O)c3nnn(-c4ccccc4F)n3)C(C)(C)C2)n1 [Example 201]
16,0.065,COc1cccc(C(=O)N2CCN(C(=O)c3nnn(-c4cccc(F)c4)n3)C(C)(C)C2)n1 [Example 202]
17,0.062,CC1(C)CN(C(=O)c2cc3ccccc3c(C3CC3)n2)CCN1C(=O)c1ncn(-c2ccccc2)n1 [Example 203]
18,0.129,CC1(C)CN(C(=O)c2cc3ccccc3c(C3CC3)n2)CCN1C(=O)c1ncn(-c2cccc(Cl)c2)n1 [Example 204]

row,EC50 [µM],Structure (SMILES)
1,0.042,CC1(C)CN(C(=O)c2cc3ccccc3c(C3CC3)n2)CCN1C(=O)c1nnn(-c2ccccc2)n1 [Example 205]
2,0.188,"CC(C)c1cccc(C(=O)N2CCN(C(=O)c3ncn(-c4ccccc4)n3)C(C)(C)C2)n1 [Example 206, [4-(6-isopropyl-pyridine-2-carbonyl)-2,2-dimethyl-piperazin-1-yl]-(1-phenyl-1H-[1,2,4]triazol-3-yl)-methanone]"
3,0.034,"COc1nc(C(=O)N2CCN(C(=O)c3nnn(-c4cccc(F)c4)n3)C(C)(C)C2)cc2ccccc12 [Example 207, [2-(3-Fluoro-phenyl)-2H-tetrazol-5-yl]-[4-(1-methoxy-isoquinoline-3-carbonyl)-2,2-dimethyl-piperazin-1-yl]-methanone]"
4,0.125,COc1nc(C(=O)N2CCN(C(=O)c3nnn(-c4cccc(Cl)c4)n3)C(C)(C)C2)cc2ccccc12 [Example 208]
5,0.314,"CC1CN(C(=O)c2ncn(-c3cccc(Cl)c3)n2)CCN1C(=O)c1cc(Br)c(Br)o1 (stereo not shown) [Example 210, [1-(3-Chloro-phenyl)-1H-[1,2,4]triazol-3-yl]-[4-(4,5-dibromo-furan-2-carbonyl)-3-methyl-piperazin-1-yl]-methanone]"
6,0.264,COc1cccc(C(=O)N2CCN(C(=O)c3ncn(-c4cccc(Cl)c4)n3)CC2C)n1 (stereo not shown) [Example 211]
7,0.174,CC1CN(C(=O)c2ncn(-c3cccc(Cl)c3)n2)CCN1C(=O)c1cc(Cl)c2c(c1)OCCO2 (stereo not shown) [Example 221]
8,0.294,CC1CN(C(=O)c2ncn(-c3cccc(Cl)c3)n2)CCN1C(=O)c1ccc2ccn(C)c2c1 (stereo not shown) [Example 222]
9,0.301,CC1CN(C(=O)c2ncn(-c3cccc(F)c3)n2)CCN1C(=O)c1cc(Cl)c2c(c1)OCCO2 (stereo not shown) [Example 234]
10,0.314,COc1cc(C(=O)N2CCN(C(=O)c3ncn(-c4cccc(C)c4)n3)CC2C)ccc1C (stereo not shown) [Example 235]
11,0.174,COc1ccc2oc(C)c(C(=O)N3CCN(C(=O)c4ncn(-c5cccc(C)c5)n4)CC3C)c2c1 (stereo not shown) [Example 237]
12,0.317,Cc1cccc(-n2cnc(C(=O)N3CCN(C(=O)c4c(C)oc5ccccc45)C(C)C3)n2)c1 (stereo not shown) [Example 238]
13,0.114,COc1ccc2oc(C)c(C(=O)N3CCN(C(=O)c4ncn(-c5ccccc5)n4)CC3C)c2c1 (stereo not shown) [Example 242]
14,0.216,COc1cccc(C(=O)N2CCN(C(=O)c3ncn(-c4cccc(C)c4)n3)CC2C)n1 (stereo not shown) [Example 244]
15,0.23,COc1cccc(C(=O)N2CCN(C(=O)c3ncn(-c4cccc(F)c4)n3)CC2C)n1 (stereo not shown) [Example 246]
16,0.169,"COc1cccc(C(=O)N2CCN(C(=O)c3ncn(-c4cccc(Cl)c4)n3)C[C@H]2C)n1 [Example 248, (R)-{4-[1-(3-Chloro-phenyl)-1H-[1,2,4]triazole-3-carbonyl]-2-methyl-piperazin-1-yl}-(6-methoxy-pyridin-2-yl)-methanone]"
17,0.198,C[C@@H]1CN(C(=O)c2ncn(-c3cccc(Cl)c3)n2)CCN1C(=O)c1cc(Br)c(Br)o1 [Example 249]
